# From patent US20260158009A1 (GENZYME CORPORATION, priority 2023, published 2026)
# Tests used:
# [1] = molecular target: T1, hRIPK1 (aa 1-375) fusion protein (Homo sapiens, UniProt Q13546); assay: ADP-Glo kinase assay: catalytic activity of RIPK1 (autophosphorylation, conversion of ATP to ADP); type: biochemical
# T1 construct: hRIPK1 (aa 1-375) fusion protein
# T1 sequence (Q13546 1-375): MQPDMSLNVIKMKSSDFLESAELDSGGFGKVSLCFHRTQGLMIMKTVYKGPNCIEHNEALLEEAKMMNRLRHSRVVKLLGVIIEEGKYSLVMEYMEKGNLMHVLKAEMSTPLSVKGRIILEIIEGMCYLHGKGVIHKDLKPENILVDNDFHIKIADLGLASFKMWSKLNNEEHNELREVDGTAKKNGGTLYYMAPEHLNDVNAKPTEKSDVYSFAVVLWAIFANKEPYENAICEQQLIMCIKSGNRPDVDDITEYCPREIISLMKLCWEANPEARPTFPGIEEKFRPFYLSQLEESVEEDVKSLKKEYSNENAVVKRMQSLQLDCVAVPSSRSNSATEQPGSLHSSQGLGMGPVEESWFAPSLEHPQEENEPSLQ
# How it was run: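 The readout was ADP-Glo luminescence after a 240 min rt autophosphorylation reaction with 50 μM ATP, following 30 min preincubation of 3.6 μg/ml hRIPK1 (aa 1-375) fusion with compound at 33300-1.69 nM final in 1% DMSO. Values came from Levenberg-Marquardt nonlinear fits.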
# U937 cells = assay: Cellular assay in U937 cells: activity of RIPK1 inhibitors on TNFα/zVAD.fmk-induced cell death (necroptosis), CellTiter 96 AQueous (MTS) readout; type: cell-based; settings: Homo sapiens, U-937
# How it was run: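 Necroptosis was measured by viable-cell MTS reduction (4 h, absorbance 490 nm) after overnight (18–24 h) 37° C culture. Cell suspensions of U937 cells carried TNFα (100 ng/ml) plus zVAD.fmk (50 μM) before compound was added. A 10-point curve (10 μM–0.26 nM or 1 μM–0.07 nM) was run in duplicate, normalised to the control lacking TNFα/zVAD.fmk.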
SMILES,IC50 [1] [µM],IC50 (U937 cells) [µM]
"N#Cc1cc(F)cc([C@@H]2CCON2C(=O)[C@H]2CC[C@H](Cn3cnc4cc(C(N)=O)c(F)cc43)CC2)c1 [compound 74, trans-1-((4-((S)-3-(3-cyano-5-fluorophenyl)isoxazolidine-2-carbonyl)cyclohexyl)methyl)-6-fluoro-1H-benzo[d]imidazole-5-carboxamide]",0.028,0.106
"NC(=O)c1cc2ncn(C[C@H]3CC[C@H](C(=O)N4OCC[C@H]4c4cc(F)cc(F)c4)CC3)c2cc1F [compound 75, trans-1-((4-((S)-3-(3,5-difluorophenyl)isoxazolidine-2-carbonyl)cyclohexyl)methyl)-6-fluoro-1H-benzo[d]imidazole-5-carboxamide]",0.027,0.036
"N#Cc1cc(F)cc([C@@H]2CCON2C(=O)[C@H]2CC[C@H](Cn3ccc4cc(F)c(C(N)=O)cc43)CC2)c1 [compound 76, trans-1-((4-((S)-3-(3-cyano-5-fluorophenyl)isoxazolidine-2-carbonyl)cyclohexyl)methyl)-5-fluoro-1H-indole-6-carboxamide]",0.017,0.008
"NC(=O)c1cc2c(ccn2C[C@H]2CC[C@H](C(=O)N3OCC[C@H]3c3cc(F)cc(F)c3)CC2)cc1F [compound 77, trans-1-((4-((S)-3-(3,5-difluorophenyl)isoxazolidine-2-carbonyl)cyclohexyl)methyl)-5-fluoro-1H-indole-6-carboxamide]",0.014,0.003
"NC(=O)c1cnc2cnn(C[C@H]3CC[C@H](C(=O)N4OCC[C@H]4c4cc(F)cc(F)c4)CC3)c2c1 [compound 79, trans-1-((4-((S)-3-(3,5-difluorophenyl)isoxazolidine-2-carbonyl)cyclohexyl)methyl)-1H-pyrazolo[4,3-b]pyridine-6-carboxamide]",0.022,0.013
"N#Cc1cc(F)cc([C@@H]2CCON2C(=O)[C@H]2CC[C@H](Cn3cnc4c(F)cc(C(N)=O)cc43)CC2)c1 [compound 80, trans-1-((4-((S)-3-(3-cyano-5-fluorophenyl)isoxazolidine-2-carbonyl)cyclohexyl)methyl)-4-fluoro-1H-benzo[d]imidazole-6-carboxamide]",0.06,0.745
"Cc1ncn(C[C@H]2CC[C@H](C(=O)N3OCC[C@H]3c3cc(F)cc(C#N)c3)CC2)c1C [compound 82, trans-3-((S)-2-(4-((4,5-dimethyl-1H-imidazol-1-yl)methyl)cyclohexane-1-carbonyl)isoxazolidin-3-yl)-5-fluorobenzonitrile]",0.067,0.136
"Cc1ncn(C[C@H]2CC[C@H](C(=O)N3OCC[C@H]3c3cc(F)cc(F)c3)CC2)c1C [compound 83, trans-((S)-3-(3,5-difluorophenyl)isoxazolidin-2-yl)(4-((4,5-dimethyl-1H-imidazol-1-yl)methyl)cyclohexyl)methanone]",0.032,0.022
"N#Cc1cc(F)cc([C@@H]2CCON2C(=O)[C@H]2CC[C@H](Cn3ncc4cc(F)c(C#N)cc43)CC2)c1 [compound 87, trans-1-((4-((S)-3-(3-cyano-5-fluorophenyl)isoxazolidine-2-carbonyl)cyclohexyl)methyl)-5-fluoro-1H-indazole-6-carbonitrile]",0.018,0.003
"Cc1ncn(C[C@H]2CC[C@H](C(=O)N3OCC[C@H]3c3cc(F)cc(F)c3)CC2)c1C#N [compound 89, trans-1-((4-((S)-3-(3,5-difluorophenyl)isoxazolidine-2-carbonyl)cyclohexyl)methyl)-4-methyl-1H-imidazole-5-carbonitrile]",0.034,0.038
"Cc1c(C#N)ncn1C[C@H]1CC[C@H](C(=O)N2OCC[C@H]2c2cc(F)cc(C#N)c2)CC1 [compound 90, trans-1-((4-((S)-3-(3-cyano-5-fluorophenyl)isoxazolidine-2-carbonyl)cyclohexyl)methyl)-5-methyl-1H-imidazole-4-carbonitrile]",0.075,0.147
"Cc1c(C#N)ncn1C[C@H]1CC[C@H](C(=O)N2OCC[C@H]2c2cc(F)cc(F)c2)CC1 [compound 91, trans-1-((4-((S)-3-(3,5-difluorophenyl)isoxazolidine-2-carbonyl)cyclohexyl)methyl)-5-methyl-1H-imidazole-4-carbonitrile]",0.039,0.067
"N#Cc1cc(F)cc([C@@H]2CCON2C(=O)[C@H]2CC[C@H](Cn3ccc4ncc(F)cc43)CC2)c1 [compound 93, trans-3-fluoro-5-((S)-2-(4-((6-fluoro-1H-pyrrolo[3,2-b]pyridin-1-yl)methyl)cyclohexane-1-carbonyl)isoxazolidin-3-yl)benzonitrile]",0.02,0.002

# Second part, led by results:
IC50 [1] [µM],SMILES,IC50 (U937 cells) [µM]
0.024,"NC(=O)c1ccc2c(cnn2C[C@H]2CC[C@H](C(=O)N3OCC[C@H]3c3cc(F)cc(F)c3)CC2)c1 [compound 73, trans-1-((4-((S)-3-(3,5-difluorophenyl)isoxazolidine-2-carbonyl)cyclohexyl)methyl)-1H-indazole-5-carboxamide]",0.009
0.04,"N#Cc1cc(F)cc([C@@H]2CCON2C(=O)[C@H]2CC[C@H](Cn3ncc4ncc(C(N)=O)cc43)CC2)c1 [compound 78, trans-1-((4-((S)-3-(3-cyano-5-fluorophenyl)isoxazolidine-2-carbonyl)cyclohexyl)methyl)-1H-pyrazolo[4,3-b]pyridine-6-carboxamide]",0.072
0.033,"NC(=O)c1cc(F)c2ncn(C[C@H]3CC[C@H](C(=O)N4OCC[C@H]4c4cc(F)cc(F)c4)CC3)c2c1 [compound 81, trans-1-((4-((S)-3-(3,5-difluorophenyl)isoxazolidine-2-carbonyl)cyclohexyl)methyl)-4-fluoro-1H-benzo[d]imidazole-6-carboxamide]",0.166
0.013,Cc1nn(C[C@H]2CC[C@H](C(=O)N3OCC[C@H]3c3cc(F)cc(F)c3)CC2)c2cc(C#N)c(F)cc12 [compound 84],0.004
0.021,"Cc1nn(C[C@H]2CC[C@H](C(=O)N3OCC[C@H]3c3cc(F)cc(C#N)c3)CC2)c2cc(C#N)c(F)cc12 [compound 85, trans-1-((4-((S)-3-(3-cyano-5-fluorophenyl)isoxazolidine-2-carbonyl)cyclohexyl)methyl)-5-fluoro-3-methyl-1H-indazole-6-carbonitrile]",0.003
0.014,"N#Cc1cc2c(cnn2C[C@H]2CC[C@H](C(=O)N3OCC[C@H]3c3cc(F)cc(F)c3)CC2)cc1F [compound 86, trans-1-((4-((S)-3-(3,5-difluorophenyl)isoxazolidine-2-carbonyl)cyclohexyl)methyl)-5-fluoro-1H-indazole-6-carbonitrile]",0.001
0.052,"Cc1ncn(C[C@H]2CC[C@H](C(=O)N3OCC[C@H]3c3cc(F)cc(C#N)c3)CC2)c1C#N [compound 88, trans-1-((4-((S)-3-(3-cyano-5-fluorophenyl)isoxazolidine-2-carbonyl)cyclohexyl)methyl)-4-methyl-1H-imidazole-5-carbonitrile]",0.157
0.075,"O=C([C@H]1CC[C@H](Cn2cnc3cc(F)ccc32)CC1)N1OCC[C@H]1c1cnccn1 [compound 92, trans-(4-((5-fluoro-1H-benzo[d]imidazol-1-yl)methyl)cyclohexyl)((S)-3-(pyrazin-2-yl)isoxazolidin-2-yl)methanone]",0.132
